For two compounds, encapsulation efficiency and immunostimulatory activity results are on record in patent US10696985B1, “Reversibly crosslinked endosomolytic polymer vesicles for cytosolic drug delivery” (Vanderbilt University, priority 2016, dated 2020).

The nature of series [1]: Encapsulation efficiency of cargo in PEG-EBP polymer vesicles. The note with it: cGAMP within PEG-EBP vesicles; high performance liquid chromatography.
Protocol: Encapsulation efficiency is defined as the percentage of cargo associated with the vesicle after cargo loading and separation of vesicles from unencapsulated cargo. N=number of experiments performed for a specific cargo type.
For formulation of polymeric vesicles, 5 mg of the polymer is mixed with 4 μL of ethanol. Upon equilibration, 4 μL of cGAMP solution (0-50 mg/mL in water) is added to the polymer/ethanol gel. […] Upon formation of vesicles, the colloid is diluted into water and sonicated further to generate the PEG-EBP encapsulated cGAMP colloid.
Solvent composition and stepwise addition amounts were chosen to maximize the vesicle yield of the formulation process while maximizing encapsulant concentration during vesicle self-assembly. […] Particles were crosslinked post assembly via addition of 0.5 molar equivalents of DTT relative to pyidyl disulfide moieties comprising the PEG-EBP colloid. Nanoparticles were readily separated from free cGAMP and crosslinking byproducts via centrifugal ultrafiltration using a 10 kDa cutoff.
Pyridyl disulfide (PDS) moieties were exploited for post-assembly in situ crosslinking of the vesicle membrane via partial reduction of disulfide bonds with DTT.
Another series addresses T1, TLR-2 (Mus musculus, UniProt Q9EPQ1+Q9QUN7).
T1 construct: endogenous in cells; host or cells: RAW264.7 NF-kB reporter cells
The series can be described thus: RAW264.7 NF-κB reporter cell assay. It is filed as cell-based. The note with it: incorporated into the PEG-EBP vesicle membrane, versus free Pam3CSK4. From the text:
PEG-EBP polymer vesicles were also shown to serve as a carrier for agonists of pattern recognition receptors (PRRs) that reside on the cell surface. […] The reduced activity of Pam3CSK4 incorporated into vesicles is thought to be primarily related to the ˜50% of Pam3CSK4 molecules that are incorporated into the inner leaflet of the vesicle membrane, and therefore are not accessible for binding to cell surface TLR-2 molecules.

T1 sequence (Q9QUN7 25-784): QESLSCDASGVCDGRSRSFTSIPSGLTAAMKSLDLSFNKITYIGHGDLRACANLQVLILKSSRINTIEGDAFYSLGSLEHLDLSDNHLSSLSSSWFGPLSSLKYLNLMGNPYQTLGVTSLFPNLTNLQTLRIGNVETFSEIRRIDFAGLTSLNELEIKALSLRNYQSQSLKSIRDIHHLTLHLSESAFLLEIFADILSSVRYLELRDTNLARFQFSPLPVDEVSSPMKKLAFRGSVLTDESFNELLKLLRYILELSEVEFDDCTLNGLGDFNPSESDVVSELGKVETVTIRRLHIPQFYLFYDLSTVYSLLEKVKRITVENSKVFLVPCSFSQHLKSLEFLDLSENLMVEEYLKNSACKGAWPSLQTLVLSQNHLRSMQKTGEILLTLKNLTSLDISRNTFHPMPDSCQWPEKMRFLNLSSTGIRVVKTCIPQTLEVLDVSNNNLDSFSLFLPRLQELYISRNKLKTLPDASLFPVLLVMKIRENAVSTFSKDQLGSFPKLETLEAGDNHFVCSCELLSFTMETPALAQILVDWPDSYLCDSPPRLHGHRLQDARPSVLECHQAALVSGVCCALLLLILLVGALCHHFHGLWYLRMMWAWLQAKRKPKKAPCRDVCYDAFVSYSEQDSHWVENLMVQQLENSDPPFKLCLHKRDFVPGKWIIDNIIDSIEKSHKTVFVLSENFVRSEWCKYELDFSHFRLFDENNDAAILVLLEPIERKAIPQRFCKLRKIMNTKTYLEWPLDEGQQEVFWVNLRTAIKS
T1 sequence (Q9EPQ1 25-795 limits assumed): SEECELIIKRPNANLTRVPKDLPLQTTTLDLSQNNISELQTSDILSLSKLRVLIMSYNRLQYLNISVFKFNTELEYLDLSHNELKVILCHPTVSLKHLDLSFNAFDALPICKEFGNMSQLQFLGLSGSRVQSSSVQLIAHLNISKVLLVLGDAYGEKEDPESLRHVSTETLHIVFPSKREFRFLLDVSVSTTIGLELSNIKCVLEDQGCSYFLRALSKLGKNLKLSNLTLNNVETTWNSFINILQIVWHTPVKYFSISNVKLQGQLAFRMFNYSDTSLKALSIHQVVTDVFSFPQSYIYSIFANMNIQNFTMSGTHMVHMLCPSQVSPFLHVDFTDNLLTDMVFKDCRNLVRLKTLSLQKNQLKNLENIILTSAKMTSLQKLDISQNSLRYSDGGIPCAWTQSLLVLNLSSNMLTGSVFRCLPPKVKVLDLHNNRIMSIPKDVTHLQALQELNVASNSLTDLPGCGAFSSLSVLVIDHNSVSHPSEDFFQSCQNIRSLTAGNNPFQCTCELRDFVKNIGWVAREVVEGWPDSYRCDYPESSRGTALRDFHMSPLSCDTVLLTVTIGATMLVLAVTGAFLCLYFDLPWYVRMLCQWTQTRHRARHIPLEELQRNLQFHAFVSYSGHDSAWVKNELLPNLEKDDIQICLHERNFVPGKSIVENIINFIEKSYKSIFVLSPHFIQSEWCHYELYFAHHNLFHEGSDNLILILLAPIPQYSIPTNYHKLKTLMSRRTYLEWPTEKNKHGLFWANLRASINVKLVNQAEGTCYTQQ

In series [1], `Nc1nc2c(ncn2[C@@H]2O[C@@H]3COP(=O)(O)O[C@H]4[C@@H](O)[C@H](n5cnc6c(N)ncnc65)O[C@@H]4COP(=O)(O)O[C@@H]2[C@@H]3O)c(=O)[nH]1` [cGAMP, cyclic guanosine monophosphate-adenosine monophosphate] registered an encapsulation efficiency of 38±3%.

On to Pam3CSK4, for which, on TLR-2, the immunostimulatory activity entry is given as “partially retained”.
